The values that follow come from US4001248A, “N-cycloalkylmethyl decahydroisoquinolines” (Eli Lilly and Company, priority 1974, dated 1977).

For data set [1] the following is noted: prior art; cited from earlier work.
In the next data set the test system is rat tail jerk. Briefly: rat tail jerk assay (increase in reaction time over control). It counts as in vivo. An excerpt:
The compounds of this invention are also active in the rat tail jerk assay, another standard pharmacologic test for analgesic activity of the opiate-type. Such activity is manifested as an increase in the reaction time of the animal in removing (jerking) its tail from a nearby heat stimulus (a resistance wire) after drug administration compared to control time (no drug administered). Table 2 which follows gives the increased reaction times over control times produced by the compounds of this invention when administered subcutaneously. In Tables 2 and 3, column 1 gives the name of the compound; column 2, the dose; column 3, time of observation after administration of the drug; column 4, the increase in reaction time above control in seconds; and column 5, the level of significance of the results ("p" value). […] All drugs were administered as aqueous solutions. More than one value for a given dose level indicates multiple determinations. The results are not averaged.

The test system of data set [2] is writhing in mice induced by the intraperitoneal injection of acetic acid. Briefly: mouse-writhing test (inhibition of writhing induced by intraperitoneal acetic acid). Type of data set: in vivo. As to conditions: for ED50: Mus musculus, read-out: Median inhibiting dose (I.D.50). An excerpt: In the Table, column 1 gives the name of the compund; column 2, the dosage in mg./kg. of mouse weight; column 3, the route of administration of the drug ("S.C." is subcutaneous and "or" is oral); and column 4, the percent inhibition found at the particular dose level. […] Median inhibiting doses (I.D.50) are also included in the Table.

For another data set, the system named is morphine. The experiment in a line: modified rat tail jerk assay, antagonism of morphine. Type of data set: in vivo, rats. On the procedure: The ability of the compounds of this invention to antagonize the action of morphine, an opiate, is shown by the following modification of the aforementioned rat tail jerk assay: The standard assay procedure is used with the exception that a 7 amps. current is used instead of a 6 amps. current in the hot wire to decrease the measurable agonist effects of the antagonist. The drugs under test are then administered to groups of rats at different dose levels at different times prior to test, with a 5 mg./kg. dose of morphine invariably being administered 10 minutes prior to test. Positive evidence of antagonism is a decreased reaction time over that to be expected from the morphine. […] Among the compounds of this invention, those in which R in Structure I is cyclopropylmethyl are the preferred antagonists, showing activity in the above test procedure. […] In a series of determinations, it was ascertained that the minimum subcutaneous dose necessary to reduce the analgesic effects of a 5 mg./kg. subcutaneous dose of morphine was in the range 2.5-5.0 mg./kg. and the minimum oral dose, 5-10 mg./kg.

[3] abbreviates: 20 mg./kg. S.C., reading at 0.5 hours.
[4] abbreviates: 20 mg./kg. oral, reading at 0.5 hours.
Setting [5] is: 100 mg./kg. S.C., reading at 0.5 hours.
Setting [6] is: 100 mg./kg. oral, reading at 0.5 hours.

SMILES strings stand for the structures. Counter-ions that a name gives are not always drawn. Like-named read-outs stand apart in the source and are kept apart here.

For `CC1C2Cc3ccc(O)cc3C1(C)CCN2CCc1ccccc1` (stereo not shown) [phenazocine], in data set [1], the “dependance (addiction) liability” value is recorded as “retain a certain degree of opiate dependance liability”; the “opiate antagonist / agonist properties” value was “both antagonists and agonists”.
In the case of `COc1ccc2c3c1O[C@H]1[C@@H](O)C=C[C@H]4[C@@H](C2)N(C)CC[C@@]341` [codeine], in data set [1], the analgesic activity result is given as “relatively mild analgesic agonist” and the “dependance (addiction) liability” value is “slight dependance (addiction) liability”.
For `COc1cccc([C@]23CCCC[C@@H]2CN(CC2CC2)CC3)c1` (relative stereo) [Trans-dl-1-cyclopropylmethyl-3a-(m-methoxyphenyl)-1,2,3,3a,4,5,6,7,7a,8-decahydroisoquinoline maleate], the “Increase in Reaction Time Over Control” value with rat tail jerk (oral, 20 mg./kg., 30 min) is 1.10 s; in the data set on rat tail jerk (oral, 20 mg./kg., 120 min), “.20 s”; with rat tail jerk (oral, 80 mg./kg., 30 min), 8.05 s; in the data set on rat tail jerk (oral, 80 mg./kg., 120 min), 1.19 s; in the data set on rat tail jerk (subcutaneous, 80 mg./kg., 30 min) it was 1.75 s; in the data set with rat tail jerk (subcutaneous, 80 mg./kg., 120 min), 1.05 s. Moreover, the “% Inhibition” value in data set [2] (10 mg./kg. S.C., reading at 0.5 hours) is on record as 20%; in data set [2] (setting [3]), 64%; in data set [2] (20 mg./kg. oral, reading at 0.25 hours) it was 5%; in data set [2] (setting [4]) it was 13%; in data set [2] (50 mg./kg. oral, reading at 0.25 hours), 79%; in data set [2] (50 mg./kg. oral, reading at 0.5 hours), 69%. In addition, the “% Inhibition” value was determined as 100% in data set [2] (setting [5]); 89% in data set [2] (100 mg./kg. oral, reading at 0.25 hours); 87% in data set [2] (setting [6]). Further, the ED50 in data set [2] (sc, S.C.) lay in the range of 10 to 20 mg/kg; in data set [2] (oral), 20 to 50 mg/kg.
Regarding `CC(=O)Oc1ccc2c3c1O[C@H]1[C@@H](OC(C)=O)C=C[C@H]4[C@@H](C2)N(C)CC[C@@]341` [heroin], in data set [1], the analgesic activity entry is listed as “powerful agonist” and the “dependance (addiction) liability” value is recorded as “extremely high addiction potential”.
Regarding `Oc1cccc([C@]23CCCC[C@@H]2CN(CC2CCC2)CC3)c1` (relative stereo) [Trans-dl-1-cyclobutylmethyl-3a-(m-hydroxyphenyl)-1,2,3,3a,4,5,6,7,7a,8-decahydroisoquinoline maleate], the “Increase in Reaction Time Over Control” value was “.43 s” with rat tail jerk (oral, 10 mg./kg., 10 min); “.63 s” with rat tail jerk (oral, 10 mg./kg., 30 min); “.21 s” in the data set with rat tail jerk (oral, 10 mg./kg., 60 min); 1.71 s in the data set with rat tail jerk (oral, 25 mg./kg., 30 min); 1.04 s with rat tail jerk (oral, 25 mg./kg., 60 min); 12.42 s with rat tail jerk (oral, 50 mg./kg., 30 min). Moreover, the “Increase in Reaction Time Over Control” value in the data set on rat tail jerk (subcutaneous, 0.25 mg./kg., 30 min) is “.71 s”; with rat tail jerk (subcutaneous, 0.5 mg./kg., 30 min), “.21 s”; in the data set with rat tail jerk (subcutaneous, 1 mg./kg., 10 min), “.46 s”; in the data set with rat tail jerk (subcutaneous, 1 mg./kg., 30 min) it was 1.63 s; in the data set with rat tail jerk (subcutaneous, 1 mg./kg., 60 min), “.17 s”; in the data set on rat tail jerk (subcutaneous, 2 mg./kg., 10 min), 2.17 s. In addition, the “Increase in Reaction Time Over Control” value was 2.50 s in the data set on rat tail jerk (subcutaneous, 2 mg./kg., 30 min); “.96 s” with rat tail jerk (subcutaneous, 2 mg./kg., 60 min); 17.88 s in the data set with rat tail jerk (subcutaneous, 10 mg./kg., 10 min); 23.04 s in the data set on rat tail jerk (subcutaneous, 10 mg./kg., 30 min); 22.13 s in the data set on rat tail jerk (subcutaneous, 10 mg./kg., 60 min). Also, the “% Inhibition” value in data set [2] (1 mg./kg. S.C., reading at 0.5 hours) is reported as 46%; in data set [2] (2 mg./kg. S.C., reading at 0.5 hours), 96%; in data set [2] (setting [3]) it was 100%; in data set [2] (setting [4]), 36%; in data set [2] (setting [5]), 100%; in data set [2] (setting [6]) it was 100%.
Consider `Oc1cccc([C@]23CCCC[C@@H]2CN(CC2CC2)CC3)c1` (stereo in doubt) [Trans-dl-1-cyclopropylmethyl-3a-(m-hydroxyphenyl)-1,2,3,3a,4,5,6,7,7a,8-decahydroisoquinoline], for which the “% Inhibition” value in data set [2] (2 mg./kg. S.C., reading at 0.25 hours) came to 43%; in data set [2] (5 mg./kg. S.C., reading at 0.25 hours), 70%. The ED50 in data set [2] (sc, S.C., readings of this compound at 0.25 hours) lay within 2 to 5 mg/kg. Also, in the data set on morphine (50 mg./kg. oral, 30 minutes prior to test, morphine 5 mg./kg. 10 minutes prior to test), the “antagonism of morphine analgesia” value is “reduces the analgesic response to 5 mg./kg. of morphine”.
In the case of `C=CCN1CC[C@]23c4c5ccc(O)c4O[C@H]2[C@@H](O)C=C[C@H]3[C@H]1C5` [nalorphine, N-allylnormorphine], the “opiate antagonist / agonist properties” value in data set [1] is listed as “highly specific ability to reverse the depressant effects of morphine”.
Regarding `C=CCN1CC[C@]23c4c5ccc(OC)c4O[C@H]2[C@@H](O)C=C[C@H]3[C@H]1C5` [N-allylnorcodeine], the “opiate antagonist / agonist properties” value in data set [1] is on record as “opiate antagonist”.
In the case of `COc1cccc([C@]23CCCC[C@@H]2CN(CC2CC2)CC3)c1` (relative stereo) [Trans-dl-1-cyclopropylmethyl-3a-(m-methoxyphenyl)-1,2,3,3a,4.5,6,7,7a,8-decahydroisoquinoline], the antagonism of morphine result in the data set on morphine (dose not stated) is listed as “found to antagonize morphine”.
For the compound `CC(C)=CCN1CCC2(C)c3cc(O)ccc3CC1C2C` (stereo not shown) [pentazocine], in data set [1], the “dependance (addiction) liability” value is recorded as “retain a certain degree of opiate dependance liability”; the “opiate antagonist / agonist properties” value is “both antagonists and agonists”.
